Key:
[1] = Functional outcome and mortality of brain-injured animals; type: in vivo, rat; details: brain injury; administered after injury
Protocol: (§1) We chose to use the compound N-acetyl-L-tryptophan. To induce a primary brain injury a rat model of diffuse axonal injury was used (Heath D L and Vink R (1997). Magnesium sulphate improves neurologic outcome following severe closed head injury in rats. Neurosci Lett; 228: 175-8). N-acetyl-L-tryptophan was then administered intravenously 30 minutes after injury, whilst control animals received drug vehicle alone.
In order to examine the effects on the cellular inflammatory response, N-acetyl-L-tryptophan was administered intravenously at a dose of 10^−5 mol/kg after injury.

IL-1β mRNA = IL-1β mRNA expression in brain tissue after brain injury (RT-PCR); type: in vivo, rat; details: 10^−5 mol/kg i.v. 30 minutes after injury; brain tissue at 6 hours after injury; normalised to rpL32 (FIG. 2)
Protocol: (§2) In order to examine the effects on the cellular inflammatory response, N-acetyl-L-tryptophan was administered intravenously at a dose of 10^−5 mol/kg after injury. The expression of mRNA for the inflammatory cytokines IL-1β, IL-6 and TNFα in brain tissue was determined by reverse transcription followed by a polymerase chain reaction (RT-PCR). mRNA levels were normalised with respect to expression of rpL32. Brain tissue samples were collected at 6 hours after injury. Levels of expression of mRNA for the inflammatory cytokines were compared in non-injured animals (sham), injured animals administered drug vehicle alone (control), and injured animals administered a substance P receptor antagonist (NK1). mRNA expression was determined for IL-1β (FIG. 2), IL-6 (FIG. 3) and TNFα (FIG. 4).

[2] = Evan's blue leakage into brain tissue (blood brain barrier) after diffuse axonal brain injury; type: in vivo; details: rat diffuse axonal injury
Protocol: as §1

[3] = Functional outcome and recovery after trauma or trauma plus hypoxia and hypotension; type: in vivo, rat; details: either trauma, or trauma plus hypoxia and hypotension
Protocol: A whole variety of severe insults are capable of triggering a systemic inflammatory response, and subsequent shock reaction. Two approaches were used in these studies, namely trauma (diffuse axonal injury), and an extended period of hypoxia and hypotension. N-acetyl-L-tryptophan was administered intravenously 30 minutes after the insult, whilst control animals received drug vehicle alone. […] This level of recovery was never seen in the non-treated animals.

TNFα mRNA = TNFα mRNA expression in brain tissue after brain injury (RT-PCR); type: in vivo, rat; details: 10^−5 mol/kg i.v. 30 minutes after injury; brain tissue at 6 hours after injury; normalised to rpL32 (FIG. 4)
Protocol: as §2

serum interleukin 6 = assay: Serum IL-6 levels (ELISA) after systemic insult (trauma; trauma plus hypoxia and hypotension); type: in vivo, rat; details: 10^−5 mol/kg i.v. 30 minutes after the insult
Protocol: A whole variety of severe insults are capable of triggering a systemic inflammatory response, and subsequent shock reaction. Two approaches were used in these studies, namely trauma (diffuse axonal injury), and an extended period of hypoxia and hypotension. N-acetyl-L-tryptophan was administered intravenously 30 minutes after the insult, whilst control animals received drug vehicle alone. A systemic inflammatory response, generated as a result of these triggers, was determined by a rise in serum interleukin 6 levels. Blood samples were collected at 6 hours after the insult. Changes in serum IL-6 levels were quantified using an enzyme-linked immunosorbent assay (ELISA). In order to examine the effects of an NK1 antagonist on the systemic inflammatory response, N-acetyl-L-tryptophan was administered intravenously at a dose of 10^−5 mol/kg 30 minutes after the insult. Serum levels of IL-6 were compared between animals that were not subject to any insult (sham), animals subject to an insult and then administered drug vehicle alone (control), and animals subject to an insult and administered a substance P receptor antagonist (NK1). IL-6 levels were determined following trauma (FIG. 5), and trauma followed by 15 minutes of hypoxia and hypotension (FIG. 6).

IL-6 mRNA = IL-6 mRNA expression in brain tissue after brain injury (RT-PCR); type: in vivo, rat; details: 10^−5 mol/kg i.v. 30 minutes after injury; brain tissue at 6 hours after injury; normalised to rpL32 (FIG. 3)
Protocol: as §2

In the case of CC(=O)N[C@@H](Cc1c[nH]c2ccccc12)C(=O)O [N-acetyl-L-tryptophan], the “functional outcome of the injured animals (motor, cognitive and behavioural outcomes)” value [1] was “significantly improved”, the mortality [1] was “significant reduction” and the “expression of IL-1β mRNA in brain tissue with respect to non-injured animals” value (IL-1β mRNA) was “no significant differences”. The “closure of the blood-brain barrier, dependence on dose” value ([2]; intravenously 30 minutes after injury (FIG. 1)) was “dose-dependent manner”, the “leakage of Evan's blue dye into the brain tissue (closure of the blood brain barrier)” value ([2]; intravenously 30 minutes after injury, vs vehicle control (FIG. 1)) was “reduced leakage” and the “time to normal physiological (spontaneous breathing) and behavioural (feeding and grooming) responses after treatment” value [3] was at most 60 minutes. For the same molecule, the “functional outcome of the animals” value ([3]; i.v. 30 minutes after the insult) was “significantly improved”, the “expression of TNFα mRNA in brain tissue with respect to non-injured animals” value (TNFα mRNA) was “no significant differences” and the “serum IL-6 levels with respect to sham animals” value (serum interleukin 6; trauma (diffuse axonal injury), blood at 6 hours (FIG. 5)) was “no significant differences”. For the same molecule, the “serum IL-6 levels with respect to sham animals” value (serum interleukin 6; trauma followed by 15 minutes of hypoxia and hypotension, blood at 6 hours (FIG. 6)) was “no significant differences” and the “expression of IL-6 mRNA in brain tissue with respect to non-injured animals” value (IL-6 mRNA) was “no significant differences”.
